Assay results reported in publication PMC10962542, “Inhibition of Aurora‐A/N‐Myc Protein–Protein Interaction Using Peptidomimetics: Understanding the Role of Peptide Cyclization” (Chembiochem, 2023).
*1 amine or outer side, *2 acyl side, *3 side chain or, on linkers, in order; H or OH if unused. Where a SMILES comes first, the peptide text is derived from it. Bridges are numbered along the chain shown (N, C = ends). Maleimide(3,4-diyl) = O=C1NC(=O)C([*:2])=C1[*:1]

Key:
[1] = molecular target: T1, N‐Myc/Aurora‐A interaction (Aurora‐A122‐403‐C290A/C393A) (Homo sapiens, UniProt O14965, C290A/C393A); experiment: competition fluorescence anisotropy (FA) assay against fluorescein labelled N‐Myc61‐89; assay type: binding; settings: SD; note: equilibrated 2 h at room temperature
T1 construct: Aurora‐A 122‐403‐C290A/C393A protein was produced as described previously; made in house
T1 sequence (O14965 122-403 C290A/C393A): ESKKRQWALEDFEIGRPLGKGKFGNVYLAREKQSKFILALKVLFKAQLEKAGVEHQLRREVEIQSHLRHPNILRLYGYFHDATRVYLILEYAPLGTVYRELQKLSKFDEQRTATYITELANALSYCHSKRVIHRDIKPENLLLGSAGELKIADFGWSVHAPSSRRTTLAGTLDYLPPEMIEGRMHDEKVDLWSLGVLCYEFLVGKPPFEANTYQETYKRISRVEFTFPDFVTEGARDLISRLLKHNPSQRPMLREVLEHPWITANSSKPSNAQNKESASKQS

[2] = circular dichroism (CD) spectroscopy; assay type: physicochemical; settings: 150 mM NaCl, 5 mM MgCl2, pH 7.5, 5 °C, n=2, free‐thiol (red) samples with 5 mol equivalents TCEP; for MRE222 (mean residue ellipticity at 222 nm): 25 mM Tris, mean ± SD, SD; for % Helicity (estimated): from MRE222 by equation 7, 25 mM Tris
In short: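 Peptides at 30–120 μM in 25 mM Tris, 150 mM NaCl, 5 mM MgCl2, pH 7.5 (plus 5 mol eq. TCEP for free sulfhydryl peptides) were scanned in duplicate at 5 °C from 290 to 180 nm, 1 mm pathlength. Buffer-subtracted ellipticity gave mean residue ellipticity, and % helicity was estimated from MRE at 222 nm.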

circular dichroism = experiment: circular dichroism; set-up: unit not given here; settings: 25 mM Tris, 150 mM NaCl, 5 mM MgCl2; pH 7.5; 5 °C; 30-120 uM

| Compound | IC50 [1] [µM] | MRE222 (mean residue ellipticity at 222 nm) [2] [deg cm^−1 dmol^−1 res^−1] | % Helicity (estimated) [2] [%] | helicity (circular dichroism) |
| --- | --- | --- | --- | --- |
| CSCC[C@H](NC(=O)[C@H](CCC(=O)O)NC(=O)[C@@H](NC(=O)[C@@H](NC(=O)[C@H](Cc1c[nH]c2ccccc12)NC(=O)[C@H](CO)NC(=O)[C@@H]1CCCN1C(=O)[C@@H]1CCCN1C(=O)[C@H](CCC(=O)O)NC(C)=O)C(C)C)[C@@H](C)O)C(=O)N[C@@H](CC(C)C)C(=O)N[C@@H](CC(C)C)C(=O)N[C@@H](CCC(=O)O)C(=O)N[C@@H](CC(N)=O)C(=O)N[C@@H](CCC(=O)O)C(=O)N[C@@H](CC(C)C)C(=O)N[C@@H](Cc1c[nH]c2ccccc12)C(=O)NCC(N)=O [N‐Myc73‐89] |  | −4079±71 | 13±1 | -4080 |
| CSCC[C@H](NC(=O)[C@H](CCC(=O)O)NC(=O)[C@@H](NC(=O)[C@@H](NC(=O)[C@H](Cc1c[nH]c2ccccc12)NC(=O)[C@H](CO)NC(=O)[C@@H]1CCCN1C(=O)[C@@H]1CCCN1C(=O)[C@H](CO)NC(C)=O)C(C)C)[C@@H](C)O)C(=O)N[C@@H](CC(C)C)C(=O)N[C@@H](CC(C)C)C(=O)N[C@@H](CCC(=O)O)C(=O)N[C@@H](CC(N)=O)C(=O)N[C@@H](CCC(=O)O)C(=O)N[C@@H](CC(C)C)C(=O)N[C@@H](Cc1c[nH]c2ccccc12)C(=O)NCC(N)=O [N‐Myc73‐89‐E73S] | 217 ± 13 | −5541±66 | 17±1 | -5540 |
| CSCC[C@H](NC(=O)[C@H](CCC(=O)O)NC(=O)[C@@H](NC(=O)[C@@H](NC(=O)[C@H](Cc1c[nH]c2ccccc12)NC(=O)[C@H](CO)NC(=O)[C@@H]1CCCN1C(=O)[C@@H]1CCCN1C(=O)[C@H](COP(=O)(O)O)NC(C)=O)C(C)C)[C@@H](C)O)C(=O)N[C@@H](CC(C)C)C(=O)N[C@@H](CC(C)C)C(=O)N[C@@H](CCC(=O)O)C(=O)N[C@@H](CC(N)=O)C(=O)N[C@@H](CCC(=O)O)C(=O)N[C@@H](CC(C)C)C(=O)N[C@@H](Cc1c[nH]c2ccccc12)C(=O)NCC(N)=O [N‐Myc73‐89‐E73pS] |  | −5394±235 | 16±1 | -5390 |
| CSCC[C@H](NC(=O)[C@H](CCC(=O)O)NC(=O)[C@@H](NC(=O)[C@@H](NC(=O)[C@H](Cc1c[nH]c2ccccc12)NC(=O)[C@H](CO)NC(=O)[C@@H]1CCCN1C(=O)[C@@H]1CCCN1C(=O)[C@H](CCC(=O)O)NC(C)=O)C(C)C)[C@@H](C)O)C(=O)N[C@@H](CC(C)C)C(=O)N[C@@H](CC(C)C)C(=O)N[C@@H](CCC(=O)O)C(=O)N[C@@H](CC(N)=O)C(=O)N[C@@H](CCC(=O)O)C(=O)N[C@@H](CC(C)C)C(=O)N[C@@H](Cc1c[nH]c2ccccc12)C(=O)NCC(=O)N[C@@H](CO)C(=O)N1CCC[C@H]1C(=O)N[C@@H](C)C(=O)N[C@@H](CCC(=O)O)C(=O)N[C@@H](CCC(=O)O)C(N)=O [N‐Myc73‐94] | 199 ± 13 | −4235±181 | 13±1 | -4240 |

More lines, main results first:

| IC50 [1] [µM] | MRE222 (mean residue ellipticity at 222 nm) [2] [deg cm^−1 dmol^−1 res^−1] | % Helicity (estimated) [2] [%] | Compound | helicity (circular dichroism) |
| --- | --- | --- | --- | --- |
| 140 ± 18 | -2428 ± 25 | 7 ± 1 | CSCC[C@H](NC(=O)[C@H](CS)NC(=O)[C@@H](NC(=O)[C@@H](NC(=O)[C@H](Cc1c[nH]c2ccccc12)NC(=O)[C@H](CS)NC(=O)[C@@H]1CCCN1C(=O)[C@@H]1CCCN1C(=O)[C@H](CCC(=O)O)NC(=O)[C@H](CO)NC(=O)[C@H](CO)NC(=O)[C@H](Cc1c[nH]cn1)NC(=O)[C@H](CCC(=O)O)NC(=O)[C@H](C)NC(=O)[C@H](Cc1ccccc1)NC(=O)CNC(=O)[C@H](CCCNC(=N)N)NC(=O)[C@H](CO)NC(=O)[C@@H]1CCCN1C(=O)[C@H](CO)NC(=O)[C@H](CC(C)C)NC(C)=O)C(C)C)[C@@H](C)O)C(=O)N[C@@H](CC(C)C)C(=O)N[C@@H](CC(C)C)C(=O)N[C@@H](CCC(=O)O)C(=O)N[C@@H](CC(N)=O)C(=O)N[C@@H](CCC(=O)O)C(=O)N[C@@H](CC(C)C)C(=O)N[C@@H](Cc1c[nH]c2ccccc12)C(=O)NCC(N)=O [N-Myc 61-89S76C/E80C red] (Ac-LSPSRGFAEHSSEPPCWVTCMLLENELWG-NH2) |  |
| 75 ± 8 | -1951 ± 84 | 6 ± 1 | CSCC[C@@H]1NC(=O)[C@H](CCC(=O)O)NC(=O)[C@@H](NC(=O)[C@@H](NC(=O)[C@H](Cc2c[nH]c3ccccc23)NC(=O)[C@H](CO)NC(=O)[C@@H]2CCCN2C(=O)[C@@H]2CCCN2C(=O)[C@H](CCC(=O)O)NC(=O)[C@H](CO)NC(=O)[C@H](CO)NC(=O)[C@H](Cc2c[nH]cn2)NC(=O)[C@H](CCC(=O)O)NC(=O)[C@H](C)NC(=O)[C@H](Cc2ccccc2)NC(=O)CNC(=O)[C@H](CCCNC(=N)N)NC(=O)[C@H](CO)NC(=O)[C@@H]2CCCN2C(=O)[C@H](CO)NC(=O)[C@H](CC(C)C)NC(C)=O)C(C)C)CSSC[C@@H](C(=O)N[C@@H](CCC(=O)O)C(=O)N[C@@H](CC(N)=O)C(=O)N[C@@H](CCC(=O)O)C(=O)N[C@@H](CC(C)C)C(=O)N[C@@H](Cc2c[nH]c3ccccc23)C(=O)NCC(N)=O)NC(=O)[C@H](CC(C)C)NC1=O [N-Myc 61-89T79C/L83C ox] (Ac-LSPSRGFAEHSSEPPSWVCEMLCENELWG-NH2; disulfide 19-23) |  |
| 111 ± 18 |  |  | CSCC[C@H](NC(=O)[C@H](CCC(=O)O)NC(=O)[C@@H](NC(=O)[C@@H](NC(=O)[C@H](Cc1c[nH]c2ccccc12)NC(=O)[C@H](CO)NC(=O)[C@@H]1CCCN1C(=O)[C@@H]1CCCN1C(=O)[C@H](CCC(=O)O)NC(C)=O)C(C)C)[C@@H](C)O)C(=O)N[C@@H](CC(C)C)C(=O)N[C@@H](CC(C)C)C(=O)N[C@@H](CCC(=O)O)C(=O)N[C@@H](CC(N)=O)C(=O)N[C@H]1CSC2=C(SC[C@@H](C(=O)N3CCC[C@H]3C(=O)N[C@@H](C)C(=O)N[C@@H](CCC(=O)O)C(=O)N[C@@H](CCC(=O)O)C(N)=O)NC(=O)CNC(=O)[C@H](Cc3c[nH]c4ccccc34)NC(=O)[C@H](CC(C)C)NC1=O)C(=O)NC2=O [N‐Myc73‐94‐E86C/S90C (mal)] (Ac-EPPSWVTEMLLENCLWGCPAEE-NH2; linker 14-18 via Maleimide(3,4-diyl)) | -5720 |
| 172 ± 23 | −7454±130 | 21±1 | CSCC[C@H](NC(=O)[C@H](CCC(=O)O)NC(=O)[C@@H](NC(=O)[C@@H](NC(=O)[C@H](Cc1c[nH]c2ccccc12)NC(=O)[C@H](CO)NC(=O)[C@@H]1CCCN1C(=O)[C@@H]1CCCN1C(=O)[C@H](CCC(=O)O)NC(C)=O)C(C)C)[C@@H](C)O)C(=O)N[C@@H](CC(C)C)C(=O)N[C@@H](CC(C)C)C(=O)N[C@@H](CCC(=O)O)C(=O)N[C@@H](CC(N)=O)C(=O)N[C@H]1CSSC[C@@H](C(=O)N2CCC[C@H]2C(=O)N[C@@H](C)C(=O)N[C@@H](CCC(=O)O)C(=O)N[C@@H](CCC(=O)O)C(N)=O)NC(=O)CNC(=O)[C@H](Cc2c[nH]c3ccccc23)NC(=O)[C@H](CC(C)C)NC1=O [N‐Myc73‐94‐E86C/S90C (ox)] (Ac-EPPSWVTEMLLENCLWGCPAEE-NH2; disulfide 14-18) | -7450 |
| 49 ± 5 |  |  | CSCC[C@H](NC(=O)[C@H](CCC(=O)O)NC(=O)[C@@H](NC(=O)[C@@H](NC(=O)[C@H](Cc1c[nH]c2ccccc12)NC(=O)[C@H](CO)NC(=O)[C@@H]1CCCN1C(=O)[C@@H]1CCCN1C(=O)[C@H](CCC(=O)O)NC(C)=O)C(C)C)[C@@H](C)O)C(=O)N[C@@H](CC(C)C)C(=O)N[C@@H](CC(C)C)C(=O)N[C@@H](CCC(=O)O)C(=O)N[C@H]1CSC2=C(SC[C@@H](C(=O)N[C@@H](CO)C(=O)N3CCC[C@H]3C(=O)N[C@@H](C)C(=O)N[C@@H](CCC(=O)O)C(=O)N[C@@H](CCC(=O)O)C(N)=O)NC(=O)[C@H](Cc3c[nH]c4ccccc34)NC(=O)[C@H](CC(C)C)NC(=O)[C@H](CCC(=O)O)NC1=O)C(=O)NC2=O [N‐Myc73‐94‐N85C/G89C (mal)] (Ac-EPPSWVTEMLLECELWCSPAEE-NH2; linker 13-17 via Maleimide(3,4-diyl)) | -7220 |
| 79 ± 4 | −4886±55 | 14±1 | Ac-EPPSWVTEMLLENELWGSPAEEDAF-NH2 [N‐Myc73‐97] |  |
